Measured values: patent publication US8802678B2, “Carbonylated (aza) cyclohexanes as dopamine D3 receptor ligands” (Bioprojet, priority 2006, dated 2014)
Where a name gives a salt, the structure may show the parent alone.

| Structure (SMILES) | melting point |
| --- | --- |
| N#CCCCC(=O)N[C@H]1CC[C@H](CCN2CC=C(c3cccc(C(F)(F)F)c3)CC2)CC1 | 102 °C |
| COCc1cccc(N2CCN(CCC3CCN(CC(C)=O)CC3)CC2)c1.Cl.Cl | 255 °C |
| CC(=O)CCCN1CCC(CCN2CCN(c3cccc(C(F)(F)F)c3)CC2)CC1.Cl.Cl | 315 °C |
| N#CCCCC(=O)N[C@H]1CC[C@H](CCN2CCN(c3ccc(Cl)c(C(F)(F)F)c3)CC2)CC1 [Example 756, N-(4-{2-[4-(4-Chloro-3-trifluoromethylphenyl)piperazin-1-yl]ethyl}cyclohexyl)-4-cyanobutanamide] | 126 °C |
| CC(=O)CN1CCC(CCN2CCN(c3cc(Cl)c(Cl)cc3F)CC2)CC1.Cl.Cl | 309 °C (dec.) |
| N#CC1CC1C(=O)N[C@H]1CC[C@H](CCN2CCN(c3cc(C(F)(F)F)ccc3F)CC2)CC1 (stereo partly drawn) [Example 763, 2-Cyano-cyclopropanecarb-oxylic acid (4-{2-[4-(2-fluoro-5-trifluoromethylphenyl)piperazin-1-yl]ethyl}cyclohexyl) amide] | 196 °C |
| N#CCC(=O)N[C@H]1CC[C@H](CCN2CCN(c3cc(F)c(F)c(F)c3)CC2)CC1 [Example 341, 2-Cyano-N-(4-{2-[4-(3,4,5-trifluorophenyl)piperazin-1-yl]ethyl}cyclohexyl)acetamide] | 209 °C |
| N#CCCCC(=O)N[C@H]1CC[C@H](CCN2CCN(c3cccc(F)c3C#N)CC2)CC1 [Example 522, 4-Cyano-N-(4-{2-[4-(2-cyano-3-fluorophenyl)piperazin-1-yl]ethyl}cyclohexyl)butanamide] | 175 °C |
| CCOCC(=O)N[C@H]1CC[C@H](CCN2CCN(c3cc(C(F)(F)F)cc(C(F)(F)F)c3)CC2)CC1 [Example 108, N-(4-{2-[4-(3,5-Bistrifluoro-methylphenyl)piperazin-1-yl]ethyl}cyclohexyl)-2-ethoxyacetamide] | 135 °C |
| CC(=O)CN1CCC(CCN2CCN(c3ccc(F)cc3F)CC2)CC1.Cl.Cl | 260 °C |
| CC(=O)CN1CCC(CCN2CCN(c3cccc(C(C)=O)c3)CC2)CC1 [Example 603, 1-(4-{2-[4-(3-Acetylphenyl)-piperazin-1-yl]ethyl}piperidin-1-yl)propan-2-one] | 85 °C |
| Cc1ccc(N2CCN(CC[C@H]3CC[C@H](NC(=O)C4=CCCC4)CC3)CC2)cc1C [Example 507, Cyclopent-1-enecarboxylic acid (4-{2-[4-(3,4-dimethylphenyl)-piperazin-1-yl]ethyl}cyclohexyl) amide] | 201 °C |
| CCOCC(=O)N[C@H]1CC[C@H](CCN2CCN(c3ccc(C)c(C)c3)CC2)CC1 [Example 508, N-(4-{2-[4-(3,4-Dimethylphenyl)piperazin-1-yl]ethyl}cyclohexyl)-2-ethoxyacetamide] | 122 °C |
| CCOC(=O)CN1CCC(CCN2CCN(c3cccc(C(F)(F)F)c3)CC2)CC1.Cl.Cl | 240 °C |
| CC(=O)CN1CCC(CCN2CC=C(c3cccc(C#N)c3)CC2)CC1 | 94 °C |
| C[S+]([O-])CC(=O)N[C@H]1CC[C@H](CCN2CCN(c3cccc(C(F)(F)F)c3)CC2)CC1 (stereo partly drawn) [Example 334, 2-Methanesulfinyl-N-(4-{2-[4-(3-trifluoromethylphenyl)piperazin-1-yl]ethyl}cyclohexyl)acetamide] | 153 °C |
| N#CCCCC(=O)N[C@H]1CC[C@H](CCN2CCN(c3cc(C(F)(F)F)ccc3F)CC2)CC1 [Example 207, 4-Cyano-N-(4-{2-[4-(2-fluoro-5-trifluoromethylphenyl)piperazin-1-yl]ethyl}cyclohexyl)butanamide] | 138 to 139 °C |
| Cc1ccc(N2CCN(CC[C@H]3CC[C@H](NC(=O)CC#N)CC3)CC2)cc1C [Example 340, 2-Cyano-N-(4-{2-[4-(3,4-dimethylphenyl)piperazin-1-yl]ethyl}cyclohexyl)acetamide] | 210 °C |
| N#CCC(=O)N[C@H]1CC[C@H](CCN2CCN(c3ccc(Cl)c(Cl)c3)CC2)CC1 [Example 272, 2-Cyano-N-(4-{2-[4-(3,4-dichlorophenyl)piperazin-1-yl]ethyl}cyclohexyl)acetamide] | 216 °C |
| N#CCC(=O)CN1CCC(CCN2CCN(c3cccc(C(F)(F)F)c3)CC2)CC1 (as salt: hydrochloride) | 160 °C |
| O=C(C[C@H]1CC[C@H](CCN2CCN(c3ccccc3F)CC2)CC1)NCC(F)(F)F [Example 304, 2-(4-{2-[4-(2-Fluorophenyl)piperazin-1-yl]ethyl}cyclohexyl)-N-(2,2,2-trifluoroethyl)acetamide] | 158 to 159 °C |
| CC(=O)CN1CCC(CCN2CCN(c3cc(C)cc(Cl)c3)CC2)CC1.Cl.Cl | 300 °C |
| N#CCCC(=O)N[C@H]1CC[C@H](CCN2CCN(c3cc(F)cc(Cl)c3)CC2)CC1 [Example 743, N-(4-{2-[4-(3-Chloro-5-fluorophenyl)piperazin-1-yl]ethyl}cyclohexyl)-3-cyanopropanamide] | 148 °C |
| COCCCC(=O)N[C@H]1CC[C@H](CCN2CC=C(c3cccc(C#N)c3)CC2)CC1 | 178 °C |

| Structure (SMILES) | melting point |
| --- | --- |
| Cc1ccc(N2CCN(CC[C@H]3CC[C@H](NC(=O)CC#N)CC3)CC2)cc1 [Example 242, 2-Cyano-N-{4-[2-(4-p-tolylpiperazin-1-yl)ethyl]cyclohexyl}acetamide] | 237 °C |
| CC(=O)CN1CCC(CCN2CCN(c3ccc(C)cc3F)CC2)CC1 [Example 482, 1-(4-{2-[4-(2-Fluoro-4-methylphenyl)piperazin-1-yl]ethyl}piperidin-1-yl)propan-2-one] | 65 °C |
| COCCCC(=O)N[C@H]1CC[C@H](CCN2CCN(c3cc(Cl)cc(Cl)c3)CC2)CC1 [Example 691, N-(4-{2-[4-(3,5-Dichlorophenyl)piperazin-1-yl]ethyl}cyclohexyl)-4-methoxybutanamide] | 184 °C |
| N#CCCCC(=O)N[C@H]1CC[C@H](CCN2CC=C(c3cccc(C(F)(F)F)c3F)CC2)CC1 | 130 °C |
| Cl.Cl.N#Cc1cccc(N2CCN(CC[C@H]3CC[C@H](NC(=O)[C@@H]4CCCN4)CC3)CC2)c1 (stereo in doubt) | 314 °C |
| N#CCCC(=O)N[C@H]1CC[C@H](CCN2CCN(c3ccc(F)c(Cl)c3F)CC2)CC1 [Example 732, N-(4-{2-[4-(3-Chloro-2,4-difluorophenyl)piperazin-1-yl]ethyl}cyclohexyl)-3-cyanopropanamide] | 190 °C |
| Cc1ccc(Cl)cc1N1CCN(CC[C@H]2CC[C@H](NC(=O)CC(F)(F)F)CC2)CC1 [Example 179, N-(4-{2-[4-(5-Chloro-2-methylphenyl)piperazin-1-yl]ethyl}cyclohexyl)-3,3,3-trifluoropropanamide] | 177 to 178 °C |
| CC(=O)CN1CCC(CCN2CC=C(c3cccc(C)c3C)CC2)CC1.Cl.Cl | 310 °C |
| CC(=O)CN1CCC(CCN2CCN(c3cccc4c3OCO4)CC2)CC1.Cl.Cl | 264 °C |
| CC(=O)CN1CCC(CCN2CCN(c3cccc(CO)c3)CC2)CC1 [Example 640, 1-(4-{2-[4-(3-Hydroxymethylphenyl)piperazin-1-yl]ethyl}piperidin-1-yl)propan-2-one] | 84 °C |
| N#CCCC(=O)N[C@H]1CC[C@H](CCN2CCN(c3cccc(C(F)(F)F)c3F)CC2)CC1 [Example 214, 3-Cyano-N-(4-{2-[4-(2-fluoro-3-trifluoromethylphenyl)piperazin-1-yl]ethyl}cyclohexyl)propanamide trans/cis 95/5] | 153 °C |
| N#CCC(=O)N[C@H]1CC[C@H](CCN2CCN(c3cccc(Cl)c3Cl)CC2)CC1 [Example 143, 2-Cyano-N-(4-{2-[4-(2,3-dichlorophenyl)piperazin-1-yl]ethyl}cyclohexyl)acetamide] | 188 °C |
| N#CCCCC(=O)N[C@H]1CC[C@H](CCN2CCN(c3cccc(F)c3F)CC2)CC1 [Example 445, 4-Cyano-N-(4-{2-[4-(2,3-difluorophenyl)piperazin-1-yl]ethyl}cyclohexyl)butanamide] | 197 °C |
| Cl.N#CCCC(=O)N[C@H]1CC[C@H](CCN2CCN(c3cccc(C(F)(F)F)c3)CC2)CC1 | 230 °C |
| N#CCC(=O)N[C@H]1CC[C@H](CCN2CCN(c3cccc(F)c3)CC2)CC1 [Example 133] | 202 °C |
| CCC(=O)C(=O)N[C@H]1CC[C@H](CCN2CCN(c3ccccc3F)CC2)CC1 [Example 89, N-(4-{2-[4-(2-Fluorophenyl)-piperazin-1-yl]ethyl}cyclohexyl)-2-oxobutanamide] | 156 °C |
| CCOCC(=O)N[C@H]1CC[C@H](CCN2CCN(c3ccc(Cl)c(Cl)c3)CC2)CC1 [Example 487, N-(4-{2-[4-(3,4-Dichlorophenyl)piperazin-1-yl]ethyl}cyclohexyl)-2-ethoxyacetamide] | 112 °C |
| CC(=O)CN1CCC(CCN2CCN(c3ccccc3C)CC2)CC1.Cl.Cl | 289 °C |
| CS(=O)(=O)c1cccc(N2CCN(CC[C@H]3CC[C@H](NC(=O)CC(F)(F)F)CC3)CC2)c1 [Example 452, 3,3,3-Trifluoro-N-(4-{2-[4-(3-methanesulfonylphenyl)piperazin-1-yl]ethyl}cyclohexyl)-propanamide] | 173 °C |
| CCOCC(=O)N[C@H]1CC[C@H](CCN2CCN(c3cc(C(F)(F)F)ccc3F)CC2)CC1 [Example 514, 2-Ethoxy-N-(4-{2-[4-(2-fluoro-5-trifluoromethylphenyl)piperazin-1-yl]ethyl}cyclohexyl)acetamide] | 128 °C |
| CC(=O)CN1CCC(CCN2CCN(c3ccc(F)c(Cl)c3)CC2)CC1 [Example 592, 1-(4-{2-[4-(3-Chloro-4-fluorophenyl)piperazin-1-yl]ethyl}piperidin-1-yl)propan-2-one] | 92 °C |
| CCOCC(=O)N[C@H]1CC[C@H](CCN2CCN(c3cccc(Cl)c3C)CC2)CC1 [Example 137, N-(4-{2-[4-(3-Chloro-2-methylphenyl)piperazin-1-yl]ethyl}cyclohexyl)-2-ethoxyacetamide] | 143 °C |
| CC(=O)CN1CCC(CCN2CCN(c3cc(C)ccc3F)CC2)CC1.Cl.Cl | 275 °C |
| O=C(N[C@H]1CC[C@H](CCN2CC=C(c3ccc(F)cc3F)CC2)CC1)C1=CCCC1 | 166 °C |
